Measurements published in ChEMBL document CHEMBL1212895.

Tests used:
[1] = molecular target: T1, Estrogen receptor (Homo sapiens) (UniProt P03372); details: MCF7, 25 uM
T1 sequence (whole entry): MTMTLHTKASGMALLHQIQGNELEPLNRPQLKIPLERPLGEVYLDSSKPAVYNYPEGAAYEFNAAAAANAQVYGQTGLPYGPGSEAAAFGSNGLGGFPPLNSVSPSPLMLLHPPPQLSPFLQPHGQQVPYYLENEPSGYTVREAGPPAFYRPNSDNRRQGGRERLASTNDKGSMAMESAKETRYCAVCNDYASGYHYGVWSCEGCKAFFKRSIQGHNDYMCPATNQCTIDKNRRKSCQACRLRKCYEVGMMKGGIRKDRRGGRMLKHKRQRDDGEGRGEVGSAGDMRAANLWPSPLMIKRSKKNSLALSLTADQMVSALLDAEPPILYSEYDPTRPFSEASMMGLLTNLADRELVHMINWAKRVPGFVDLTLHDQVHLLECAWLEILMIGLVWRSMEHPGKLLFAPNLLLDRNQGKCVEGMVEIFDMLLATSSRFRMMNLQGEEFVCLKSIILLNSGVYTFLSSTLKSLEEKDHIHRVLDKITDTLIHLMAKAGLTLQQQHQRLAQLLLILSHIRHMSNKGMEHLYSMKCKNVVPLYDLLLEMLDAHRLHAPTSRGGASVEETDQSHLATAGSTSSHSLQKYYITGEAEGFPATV

[2] = molecular target: T1, Estrogen receptor (Homo sapiens); details: MCF7, 10 uM

Row | SMILES | inhibition [1] | inhibition [2]
1 | O=c1c(-c2ccc(O)cc2)coc2cc(OC3CCCC3)ccc12 | 89.8% | 54.1%
2 | CC1(C)C=Cc2c(ccc3c(=O)c(-c4ccc(O)cc4)coc23)O1 | 100% | 54.6%
3 | O=c1c(-c2ccc(O)cc2)coc2cc(O)ccc12 | – | 17.2%
4 | CC(C)Oc1ccc2c(=O)c(-c3ccc(O)cc3)coc2c1 | 68.1% | 33.4%
5 | CC(C)COc1ccc2c(=O)c(-c3ccc(O)cc3)coc2c1 | 91.3% | 60.5%

The next lines start with the values.

Row | inhibition [1] | inhibition [2] | SMILES
6 | 41.4% | – | CCCOc1ccc2c(=O)c(-c3ccc(O)cc3)coc2c1
7 | 33.2% | – | COc1ccc2c(=O)c(-c3ccc(O)cc3)coc2c1
8 | 49.8% | – | CCCCOc1ccc2c(=O)c(-c3ccc(O)cc3)coc2c1
9 | 46.4% | – | CCCCCCOc1ccc2c(=O)c(-c3ccc(O)cc3)coc2c1
10 | 18.8% | – | CCOc1ccc2c(=O)c(-c3ccc(O)cc3)coc2c1
